Measurements as given in US7709533B2, “Imines as ion channel modulators” (Icagen, Inc., priority 2005, dated 2010).

target: T1, human intermediate-conductance, calcium-activated K+ channels (h-IK1) (Homo sapiens, UniProt O15554); assay: Rubidium efflux assay (86Rb+ efflux, CHO-K1 cells expressing h-IK1); format: cell-based; details: hIK1 in CHO-K1 cells; 86Rb+ efflux stimulated with ionomycin; drug 0.01-30 μM, 6 min preincubation, 10 min efflux; read-out: IK1 Inhibitory Activity
T1 construct: expressed in transfected cells; host or cells: CHO-K1 (ATCC CCL-61), kept under G-418 selection
Protocol: CHO-K1 cells (American Type Culture Collection, CCL-61) expressing human intermediate-conductance, calcium-activated K^+ channels (h-IK1) are cultured in Ham's F-12 medium (HyClone) supplemented with 10% heat inactivated fetal bovine serum (Nova-Tech) and 400 μg/mL G-418 (Geneticin, Life Technologies), in an incubator at 37° C. with a humidified atmosphere of 5% CO2. Cells are typically sub-cultured twice per week. When the culture flask reaches 70%-90% confluency, the culture medium is removed, cells are rinsed twice with calcium and magnesium-free Dulbecco's phospate buffed saline (PBS) and a 0.05% trypsin/0.5 mM EDTA in HBSS solution is added until cells begin to round up (typically 2-5 min). Twenty four hours prior to the experiment, cells are removed from the culture flask and resuspended in Ham's F-12 medium supplemented with 10% heat inactivated fetal bovine serum, 50 μg/mL streptomycin, 50 U/mL penicillin, 10 mM HEPES, pH 7.2, and plated on 96 well, cell culture treated, flat bottomed trays (TPP 96, 4×10^6 cells per 96 well plate; 100 μL/well). Cells are loaded with ^86Rb^+ by incubating the cells overnight in culture medium containing 1 μCi/ml ^86RbCl (Perkin-Elmer) using a Labsystems Multidrop. On the day of the experiment, Culture media is removed and the cells are washed 4 times with 100 μL per well of zero Ca^2+ Earl's Balanced Salt Solution (EBSS)[composition (mM): NaCl (138), KCl (5.4), MgCl2 (1), glucose (10), HEPES (10), pH 7.4 with 10N NaOH]. Cells were preincubated with drug (0.01-30 μM) in low Ca^2+ EBSS, [composition (mM): NaCl (138), CaCl2 (0.25), KCl (5.4), MgCl2 (1), glucose (10), HEPES (10), pH 7.4 with 10N NaOH] for 6 min. ^86Rb^+ efflux is stimulated by exposing cells to regular EBSS [composition (mM): NaCl (138), CaCl2 (1.8), KCl (5.4), MgCl2 (1), glucose (10), HEPES (10), pH 7.4 with 10N NaOH] supplemented with […] ionomycin (Calbiochem), in the continued presence of drug. After a 10 min efflux period, the EBSS/ionomycin solution is removed from the cells and the ^86Rb^+ content determined by Cherenkov counting (Wallac 1450 Microbeta Trilux liquid scintillation and luminescence counter). Cells are then lysed with 100 μL 0.1% SDS solution per well, and the ^86Rb^+ content of the lysate determined. Percent ^86Rb^+ efflux is calculated according to the following formula: (^86Rb^+ content in EBSS/(^86Rb^+ content in EBSS+^86Rb^+ content of the lysate))×100.

IC50 [nM]	Compound
< 500	N=C(NO)C(c1ccccc1)(c1ccccc1)c1ccccc1Cl [2-(2-Chloro-phenyl)-N-hydroxy-2,2-diphenyl-acetamidine]
< 500	N=C(NO)C(c1ccccc1)(c1ccc(F)cc1)c1ccccc1F (centres unmarked) [Example 1, 2-(2-Fluoro-phenyl)-2-(4-fluoro-phenyl)-N-hydroxy-2-phenyl-acetamidine]
< 500	N=C(NO)C(c1ccccc1)(c1ccc(F)cc1)c1ccc(F)cc1 [Example 2, 2,2-Bis-(4-fluoro-phenyl)-N-hydroxy-2-phenyl-acetamidine]
< 500	N=C(NO)C(c1ccc(F)cc1)(c1ccc(F)cc1)c1ccc(F)cc1 [Example 3, 2,2,2-Tris-(4-fluoro-phenyl)-N-hydroxy-acetamidine]
< 500	CCONC(=N)C(c1ccc(F)cc1)(c1ccc(F)cc1)c1ccc(F)cc1 [Example 4, N-Ethoxy-2,2,2-tris-(4-fluoro-phenyl)-acetamidine]
< 500	N=C(NO)C(c1ccc(F)cc1)(c1ccc(F)cc1)c1ccccc1Cl [Example 5, 2-(2-Chloro-phenyl)-2,2-bis-(4-fluoro-phenyl)-N-hydroxy-acetamidine]
< 500	ON=CC(c1ccccc1)(c1ccccc1)c1ccccc1Cl [Example 6, (2-Chloro-phenyl)-diphenyl-acetaldehyde oxime]
< 500	CON=CC(c1ccccc1)(c1ccccc1)c1ccccc1Cl [Example 7, (2-Chloro-phenyl)-diphenyl-acetaldehyde O-methyl-oxime]
< 500	CONC(=N)C(c1ccccc1)(c1ccc(F)cc1)c1ccc(F)cc1 [Example 8, 2,2-Bis-(4-fluoro-phenyl)-N-methoxy-2-phenyl-acetamidine]
500 to 1000	N=C(NN)C(c1ccccc1)(c1ccc(F)cc1)c1ccc(F)cc1 [Example 9, 2,2-Bis-(4-fluoro-phenyl)-N-amino-2-phenyl-acetamidine]
500 to 1000	N=C(NN)C(c1ccc(F)cc1)(c1ccc(F)cc1)c1ccc(F)cc1 [Example 10, 2,2,2-Tris-(4-fluoro-phenyl)-N-amino-acetamidine]
500 to 1000	N=C(NO)C(c1ccccc1)(c1ccccc1)c1ccccc1 [Example 11, N-Hydroxy-2,2,2-triphenyl-acetamidine]
500 to 1000	COc1ccc(C(C(=N)NO)(c2ccccc2)c2ccccc2)cc1 [Example 12, N-Hydroxy-2-(4-methoxy-phenyl)-2,2-diphenyl-acetamidine]
500 to 1000	N=C(NO)C(c1ccccc1)(c1ccccc1)c1cccc(F)n1 [Example 13, 2-(6-Fluoro-pyridin-2-yl)-N-hydroxy-2,2-diphenyl-acetamidine]
1000 to 10000	N=C(NO)C(c1cccc(F)c1)(c1cccc(F)n1)c1cccc(F)n1 [Example 14, 2-(3-Fluoro-phenyl)-2,2-bis-(6-fluoro-pyridin-2-yl)-N-hydroxy-acetamidine]
1000 to 10000	N=C(N)C(c1cccc(F)n1)(c1cccc(F)n1)c1cccc(F)n1 [Example 15, 2,2,2-Tris-(6-fluoro-pyridin-2-yl)-acetamidine]
1000 to 10000	Cc1nc(C(c2ccccc2)(c2ccccc2)c2cccc(F)n2)no1 [Example 16, 2-Fluoro-6-[(5-methyl-[1,2,4]oxadiazol-3-yl)-diphenyl-methyl]-pyridine]
1000 to 10000	Cc1ccc(C(C(=N)N)(c2cccc(F)c2)c2cccc(F)c2)cn1 [Example 17, 2,2-Bis-(3-fluoro-phenyl)-2-(6-methyl-pyridin-3-yl)-acetamidine]

IC50 [nM]	Compound
1000 to 10000	N=C(N)C(c1ccc(F)cc1)(c1ccc(F)cc1)c1ccc(F)cc1 [Example 18, 2,2,2-Tris-(4-fluoro-phenyl)-acetamidine]
1000 to 10000	CONC(=N)C(c1ccc(F)cc1)(c1ccc(F)cc1)c1ccc(F)cc1 [Example 19, 2,2,2-Tris-(4-fluoro-phenyl)-N-methoxy-acetamidine]
1000 to 10000	CC(C)ONC(=N)C(c1ccc(F)cc1)(c1ccc(F)cc1)c1ccc(F)cc1 [Example 20, 2,2,2-Tris-(4-fluoro-phenyl)-N-isopropoxy-acetamidine]
1000 to 10000	N=C(N)C(c1ccccc1)(c1ccc(F)cc1)c1ccc(F)cc1 [Example 21, 2,2-Bis-(4-fluoro-phenyl)-2-phenyl-acetamidine]
1000 to 10000	N=C(N)C(c1ccccc1)(c1ccccc1)c1ccccc1 [Example 22, 2,2,2-Triphenyl-acetamidine]
1000 to 10000	COc1ccc(C(C(=N)NO)(c2ccccc2)c2ccc(OC)cc2)cc1 [Example 23, N-Hydroxy-2,2-bis-(4-methoxy-phenyl)-2-phenyl-acetamidine]
1000 to 10000	N=C(NO)C(c1ccccc1)(c1ccccc1)c1ccc(O)cc1 [Example 24, N-Hydroxy-2-(4-hydroxy-phenyl)-2,2-diphenyl-acetamidine]
1000 to 10000	CC(=NN)C(c1ccccc1)(c1ccccc1)c1ccccc1 [Example 25, (1-Methyl-2,2,2-triphenyl-ethylidene)-hydrazine]
1000 to 10000	CON=C(C)C(c1ccccc1)(c1ccccc1)c1ccccc1 [Example 26, 1,1,1-Triphenyl-propan-2-one O-methyl-oxime]
1000 to 10000	COC(=N)C(c1ccc(F)cc1)(c1ccc(F)cc1)c1ccc(F)cc1 [Example 27, 2,2,2-Tris-(4-fluoro-phenyl)-acetimidic acid methyl ester]
1000 to 10000	COC(=N)C(c1ccccc1)(c1ccc(F)cc1)c1ccc(F)cc1 [Example 28, 2,2-Bis-(4-fluoro-phenyl)-2-phenyl-acetimidic acid methyl ester]
1000 to 10000	CN=C(OC)C(c1ccccc1)(c1ccc(F)cc1)c1ccc(F)cc1 [Example 29, 2,2-Bis-(4-fluoro-phenyl)-N-methyl-2-phenyl-acetimidic acid methyl ester]
> 10000	N=C(NO)C(c1cccc(F)n1)(c1cccc(F)n1)c1cccc(F)n1 [Example 30, 2,2,2-Tris-(6-fluoro-pyridin-2-yl)-N-hydroxy-acetamidine]
> 10000	COc1ccc(C(C(=N)NO)(c2ccc(OC)cc2)c2ccc(OC)cc2)cc1 [Example 31, N-Hydroxy-2,2,2-tris-(4-methoxy-phenyl)-acetamidine]
> 10000	N=C(NO)C(c1ccccc1)(c1ccc(O)cc1)c1ccc(O)cc1 [Example 32, N-Hydroxy-2,2-bis-(4-hydroxy-phenyl)-2-phenyl-acetamidine]
> 10000	CCON=C(C)C(c1ccccc1)(c1ccccc1)c1ccccc1 [Example 33, 1,1,1-Triphenyl-propan-2-one O-ethyl-oxime]
> 10000	CC(=NO)C(c1ccccc1)(c1ccccc1)c1ccccc1 [Example 34, 1,1,1-Triphenyl-propan-2-one oxime]
